IC50 data for 22 compounds are collected here from US10829452B2, “Histone methyltransferase inhibitors” (GLOBAL BLOOD THERAPEUTICS, INC., priority 2016, dated 2020).

Where a name gives a salt, the structure may show the parent alone.

The test concerns the target T1, G9a (Homo sapiens, UniProt Q96KQ7).
T1 sequence (Q96KQ7 1-1210): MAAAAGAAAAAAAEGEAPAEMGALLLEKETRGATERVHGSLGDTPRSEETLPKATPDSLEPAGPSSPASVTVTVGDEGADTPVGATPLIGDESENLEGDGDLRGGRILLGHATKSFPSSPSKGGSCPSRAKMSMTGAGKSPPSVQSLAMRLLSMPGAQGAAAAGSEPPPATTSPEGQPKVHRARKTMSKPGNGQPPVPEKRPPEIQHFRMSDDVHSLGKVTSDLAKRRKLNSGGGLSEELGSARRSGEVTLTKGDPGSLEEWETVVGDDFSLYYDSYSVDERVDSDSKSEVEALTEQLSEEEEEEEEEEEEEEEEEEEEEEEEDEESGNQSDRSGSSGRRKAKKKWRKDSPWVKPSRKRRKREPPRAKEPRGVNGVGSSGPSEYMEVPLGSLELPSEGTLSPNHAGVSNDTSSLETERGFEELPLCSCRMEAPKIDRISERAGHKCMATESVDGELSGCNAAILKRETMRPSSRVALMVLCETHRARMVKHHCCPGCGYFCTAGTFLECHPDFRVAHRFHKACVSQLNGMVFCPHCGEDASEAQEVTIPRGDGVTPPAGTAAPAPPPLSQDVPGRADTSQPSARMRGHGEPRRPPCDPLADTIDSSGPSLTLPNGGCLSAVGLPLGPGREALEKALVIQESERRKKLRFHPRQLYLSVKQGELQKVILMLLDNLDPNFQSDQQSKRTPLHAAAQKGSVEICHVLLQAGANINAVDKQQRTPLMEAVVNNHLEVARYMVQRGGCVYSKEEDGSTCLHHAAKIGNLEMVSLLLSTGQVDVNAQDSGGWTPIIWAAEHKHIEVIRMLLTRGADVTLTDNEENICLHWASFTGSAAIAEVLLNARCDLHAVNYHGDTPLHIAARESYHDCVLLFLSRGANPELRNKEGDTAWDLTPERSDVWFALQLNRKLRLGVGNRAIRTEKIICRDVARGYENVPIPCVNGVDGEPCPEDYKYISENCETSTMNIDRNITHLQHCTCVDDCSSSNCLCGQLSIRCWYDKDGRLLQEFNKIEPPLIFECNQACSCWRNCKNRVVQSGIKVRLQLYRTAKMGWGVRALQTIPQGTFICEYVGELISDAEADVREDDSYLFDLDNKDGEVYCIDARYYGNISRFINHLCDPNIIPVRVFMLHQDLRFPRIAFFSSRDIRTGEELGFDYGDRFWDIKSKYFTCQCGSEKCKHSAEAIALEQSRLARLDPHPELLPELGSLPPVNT
In words: G9a AlphaLISA enzymatic activity assay. It counts as biochemical. As to conditions: 0.15 nM G9a, 15 uM S-adenosyl-methionine, 100 nM biotinylated histone 3 peptide (1-21), 1 hour at room temperature; read-out: G9a in (uM) (IC50, concentration that produced 50% inhibition). The source says:
The G9a AlphaLISA assay was used to detect the methyl modifications of a biotinylated histone H3 peptide by the compounds. These modifications are done by the histone methyl transferase activity of the G9a enzyme. The assay consists of reading a chemiluminescent signal at 615 nm; this signal is generated by a laser excitation at 680 nm that transfers a reactive singlet oxygen between the donor beads and acceptor beads. Donor beads are streptavidin conjugated and bind to the biotin on the peptide. Acceptor beads are conjugated with an antibody that recognizes the specific G9a methyl mark on the peptide. If there is a methyl mark on the peptide, the acceptor beads will bind to the peptide. Upon binding, the acceptor beads will be in close proximity (<200 nm) of the donor beads and when the donor beads are excited, the transfer of the oxygen can occur and a strong signal will be generated. If there is no methyl mark, the interaction between beads will not occur and signal will be at background levels.
For the assay, the following buffer was used to set up reactions: 50 mM Tris-HCl pH9, 50 mM NaCl, 0.01% Tween-20 and 1 mM DTT (added fresh prior to starting the reactions). The assay is set up by adding a final concentration of 0.15 nM G9a, 15 uM S-adenosyl-methionine and, 100 nM biotinylated histone 3 peptide (1-21). The reaction is incubated at room temperature for 1 hour, and subsequently quenched by the addition of the acceptor beads (anti-H3k9me2 AlphaLISA acceptor beads, PerkinElmer # AL117) at a final concentration of 20 ug/mL. The acceptor beads are incubated for 1 hour. After 1 hour, the donor beads are added at a final concentration of 20 ug/mL (Alpha Streptavidin donor beads, PerkinElmer #6760002). Donor beads are incubated for 0.5 hours. Both donor and acceptor beads are resuspended in AlphaLISA 5X Epigenetics Buffer 1 Kit (PerkinElmer # AL008) prior to addition to the reaction. All manipulations and incubations with the donor and acceptor beads are done in subdued light. Signal is detected in an EnVision plate reader in Alpha mode (see ACS Med Chem Lett. 2014 Jan. 2; 5(2):205-9. doi: 10.1021/m1400496h. eCollection 2014. Discovery and development of potent and selective inhibitors of histone methyltransferase g9a.)
Percent inhibition was calculated for each compound dilution and the concentration that produced 50% inhibition was calculated. This value is presented as the IC50.
On the technique in general: Bead proximity is the source of the signal in Alpha formats.

In the case of `COc1cc2c3c(c(N[C@H]4CCC[C@H]4O)nc2cc1OCCCN1CCCC1)CCC3` (racemic) [Example 125, (1R,2S)-2-({8-methoxy-7-[3-(pyrrolidin-1-yl)propoxy]-1H,2H,3H-cyclopenta[c]quinolin-4-yl}amino)cyclopentan-1-ol and (1S,2R)-2-({8-methoxy-7-[3-(pyrrolidin-1-yl)propoxy]-1H,2H,3H-cyclopenta[c]quinolin-4-yl}amino)cyclopentan-1-ol (1:1) mixture as formate salt], the IC50 worked out at 1 µM.

Consider `CNc1nc2cc(OCCCN3CCCC3)c(OC)cc2c2c1CCC2` [Example 1, 8-methoxy-N-methyl-7-[3-(pyrrolidin-1-yl)propoxy]-1H,2H,3H-cyclopenta[c]quinolin-4-amine formate], for which the IC50 was determined as 0.031 µM.

On to `CNc1nc2cc(OCCCN3CCCC3)c(OC)cc2c2c1CCCC2` [Example 2, 2-methoxy-N-methyl-3-[3-(pyrrolidin-1-yl)propoxy]-7,8,9,10-tetrahydrophenanthridin-6-amine formate], for which the IC50 turned out to be 0.029 µM.

Regarding `COc1cc2c3c(c(NC(C)C)nc2cc1OCCCN1CCCC1)CCC3` [Example 3, 8-methoxy-N-(propan-2-yl)-7-[3-(pyrrolidin-1-yl)propoxy]-1H,2H,3H-cyclopenta-[c]quinolin-4-amine trifluoroacetate], the IC50 amounted to 0.015 µM.

For the compound `COc1cc2c3c(c(NCCO)nc2cc1OCCCN1CCCC1)CCC3` [Example 4, 2-({8-methoxy-7-[3-(pyrrolidin-1-yl)propoxy]-1H,2H,3H-cyclopenta[c]quinolin-4-yl}amino)ethan-1-oltrifluoroacetate trifluoroacetate], the IC50 amounted to 0.04 µM.

Consider `COc1cc2c3c(c(NCCc4ccccc4)nc2cc1OCCCN1CCCC1)CCC3` [Example 5, 8-methoxy-N-(2-phenylethyl)-7-[3-(pyrrolidin-1-yl)propoxy]-1H,2H,3H-cyclopenta[c]quinolin-4-amine trifluoroacetate], for which the IC50 was 0.15 µM.

Regarding `COc1cc2c3c(c(NC(C)C)nc2cc1OCCCN1CCCC1)CC(C)C3` (stereo not shown) [Example 6, 8-methoxy-2-methyl-N-(propan-2-yl)-7-[3-(pyrrolidin-1-yl)propoxy]-1H,2H,3H-cyclopenta[c]quinolin-4-amine formate], the IC50 was found to be 0.027 µM.

With `COc1cc2c3c(c(NC4CCC4)nc2cc1OCCCN1CCCC1)CCC3` [Example 7, N-cyclobutyl-8-methoxy-7-[3-(pyrrolidin-1-yl)propoxy]-1H,2H,3H-cyclopenta[c]quinolin-4-amine formate], the IC50 is 0.045 µM.

As for `COc1cc2c3c(c(NC4CCCC4)nc2cc1OCCCN1CCCC1)CCC3` [Example 8, N-cyclopentyl-8-methoxy-7-[3-(pyrrolidin-1-yl)propoxy]-1H,2H,3H-cyclopenta[c]quinolin-4-amine trifluoroacetate], the IC50 was 0.04 µM.

Turning to `COc1cc2c3c(c(N(C)C(C)C)nc2cc1OCCCN1CCCC1)CCC3` [Example 9, 8-methoxy-N-methyl-N-(propan-2-yl)-7-[3-(pyrrolidin-1-yl)propoxy]-1H,2H,3H-cyclopenta[c]quinolin-4-amine trifluoroacetate], the IC50 stood at 0.69 µM.

Take `COc1cc2c3c(c(N4CCCC4)nc2cc1OCCCN1CCCC1)CCC3` [Example 10, 1-{8-methoxy-7-[3-(pyrrolidin-1-yl)propoxy]-1H,2H,3H-cyclopenta[c]quinolin-4-yl}pyrrolidine formate]: the IC50 stood at 0.19 µM.

With `COc1cc2c3c(c(NC(C)C)nc2cc1OCC1CCN(C)C1)CCC3` (stereo not shown) [Example 11, 8-methoxy-7-[(1-methylpyrrolidin-3-yl)methoxy]-N-(propan-2-yl)-1H,2H,3H-cyclopenta[c]quinolin-4-amine trifluoroacetate], the IC50 amounted to 0.27 µM.

On to `COc1cc2c3c(c(NC4CCOCC4)nc2cc1OCCCN1CCCC1)CCCC3` [Example 12, 2-methoxy-N-(oxan-4-yl)-3-[3-(pyrrolidin-1-yl)propoxy]-7,8,9,10-tetrahydrophenanthridin-6-amine trifluoroacetate], for which the IC50 came out at 0.52 µM.

Consider `COc1cc2c3c(c(NC(C)C)nc2cc1OCCCN1CCCC1)CCCC3` [Example 13, 2-methoxy-N-(propan-2-yl)-3-[3-(pyrrolidin-1-yl)propoxy]-7,8,9,10-tetrahydrophenanthridin-6-amine formate], for which the IC50 was 0.042 µM.

In the case of `COc1cc2c3c(c(NC(C)=O)nc2cc1OCCCN1CCCC1)CCC3` [Example 14, N-{8-methoxy-7-[3-(pyrrolidin-1-yl)propoxy]-1H,2H,3H-cyclopenta[c]quinolin-4-yl}acetamide trifluoroacetate], the IC50 is 0.19 µM.

`COc1cc2c3c(c(NCCO)nc2cc1OCCCN1CCCC1)CCCC3` [Example 15, 2-({2-methoxy-3-[3-(pyrrolidin-1-yl)propoxy]-7,8,9,10-tetrahydrophenanthridin-6-yl}amino)ethan-1-ol formate]: the IC50 worked out at 0.19 µM.

As for `COc1cc2c3c(c(N[C@H]4C[C@H](O)C4)nc2cc1OCCCN1CCCC1)CCC3` [Example 16, (1r,3r-3-({8-methoxy-7-[3-(pyrrolidin-1-yl)propoxy]-1H,2H,3H-cyclopenta[c]quinolin-4-yl}amino)cyclobutan-1-ol trifluoroacetate], the IC50 amounted to 0.11 µM.

Turning to `COc1cc2c3c(c(N[C@@H]4CCOC4)nc2cc1OCCCN1CCCC1)CCC3` [Example 17, 8-methoxy-N-[(3R)-oxolan-3-yl]-7-[3-(pyrrolidin-1-yl)propoxy]-1H,2H,3H-cyclopenta[c]quinolin-4-amine formate], the IC50 came to 0.21 µM.

Turning to `COc1cc2c3c(c(N[C@H]4CCOC4)nc2cc1OCCCN1CCCC1)CCC3` [Example 18, 8-methoxy-N-[(3S)-oxolan-3-yl]-7-[3-(pyrrolidin-1-yl)propoxy]-1H,2H,3H-cyclopenta[c]quinolin-4-amine formate], the IC50 turned out to be 0.11 µM.

For the compound `COc1cc2c3c(c(NC4CC4)nc2cc1OCCCN1CCCC1)CCCC3` [Example 19, N-cyclopropyl-2-methoxy-3-[3-(pyrrolidin-1-yl)propoxy]-7,8,9,10-tetrahydrophenanthridin-6-amine formate], the IC50 came out at 0.057 µM.

As to `CNc1nc2cc(OCCCN3CCCC3)c(OC)cc2c2c1CC(O)CC2` (stereo not shown) [Example 20, 2-methoxy-6-(methylamino)-3-[3-(pyrrolidin-1-yl)propoxy]-7,8,9,10-tetrahydrophenanthridin-8-ol formate], the IC50 turned out to be 0.14 µM.

Consider `COc1cc2c3c(cnc2cc1OCCCN1CCCC1)CCC3` [Example 21, 1-[3-({8-methoxy-1H,2H,3H-cyclopenta[c]quinolin-7-yl}oxy)propyl]pyrrolidine trifluoroacetate], for which the IC50 is 0.62 µM.
